“Also recorded” adds a separate entry of the source.
Key:
Type in all cases: in vivo, mouse
C57BL/6J.OlaaHsd mice [1] = assay: DSS-induced colitis, treatment with arginine, citrulline, NaNO2, fisetin or citrulline plus fisetin; settings: for weight loss: 1% DSS 6 days; for Histology score for colitis: FIG. 3D; for clinical improvement in colitis severity: evaluated by change in weight, histological score and colon length, vs control
Procedure: Colitis was induced in Vav1^Cre:As1^f/f mice and CD11c^Cre:As1^f/f with 1.5% DSS and with 0.8% DSS in the Villin^Cre:As1^f/f (wt/vol), (Dextran Sodium Sulfate, MP Biomedicals; molecular weight 36,000-50,000 Da). The powder was dissolved in the drinking water for 6 days, followed by 5 days of supplementing regular water^20. Each group consisted of eight to ten, 8-10 weeks old, male mice. Experiments were repeated at least three times. “f/f”—flox/flox.
Colonoscopy was performed on days 7 and 11 of the experiment to monitor for severity of colitis. For the procedure, a high resolution mouse video endoscopic system was used, which consists of a miniature endoscope (scope 1.9 mm outer diameter), a xenon light source, a triple chip camera, and an air pump to achieve regulated inflation of the mouse bowel (Karl Storz, Tuttlingen, Germany). Mice were anesthetized by the administration of 4-5% of isoflurane in 100% oxygen at a rate of 0.2-0.5 L/min or by the administration of 100 mg/kg Ketamine/10 mg/kg Xylazine mixture IP, after which, the endoscope was introduced via the anus and the colon was carefully insufflated with an air pump before analysis of the colonic mucosa. The endoscopic procedure was viewed on a color monitor and digitally recorded on tape. Colitis was scored according to the Murine endoscopic index of colitis severity (MEICS), considering differences in the thickness of the bowel wall, changes in blood vessel integrity, mucosal surface, stool consistency or the presence of fibrin, scored each between 0 and 3. The cumulative score ranged from 0 (no signs of inflammation) to 15 (signs of severe inflammation)^21.
Mice were treated with 1% (wt/vol) DSS for 6 days, followed by administration of either arginine 1% (wt/vol) solution (Sigma-Aldrich, St. Louis, Mo., catalogue number A8094) in drinking water, citrulline 1% (wt/vol) (L-citrulline, Chem-Impex International), NaNO2 100 mg (Sigma-Aldrich, St. Louis, Mo., catalogue number S2252), or water as control for additional 6 days.
Fisetin was given by intraperitoneal (i.p.) injection (1 mg/animal) in 30 μL of DMSO twice weekly. The control group was injected with 30 μL of DMSO twice weekly. Each group consisted of ten, 8-weeks old, male mice. Experiments were repeated three times.
Histopathology. On the day of sacrifice, colons were removed and their length was measured. Colon was fixed in 2.5% PFA solution overnight at 4° C., then embedded in paraffin, sectioned and stained with H&E. Tissues were examined in a blinded manner by a pathologist and scored on a 0-4 scale based on the parameters of inflammation severity^20.

As1 = assay: Immunohistochemistry staining of distal colon sections for As1; settings: after colitis induction, vs control mice with colitis; FIG. 3E, 4A
Procedure: Four micrometer paraffin embedded tissue sections were deparaffinized and rehydrated. Endogenous peroxidase was blocked with three percent H2O2 in methanol. Sections undergoing for ALS staining were incubated in cold acetone at −20° C. for 7 minutes. For F4/80 and MAC-2 staining, the present inventors performed antigen retrieval in Tris-EDTA pH 9 and 10 mM citric acid pH 6, for 10 minutes, respectively, using a low boiling program in the microwave to break protein cross-links and unmask antigens. After pre-incubation with 20% normal horse serum and 0.2% Triton X-100 for 1 hour at RT (root temperature), sections were incubated with the primary antibodies as follow; ASL (1:100, Abcam, ab97370, CA, USA); F4/80 (1:50, Serotec, Kidllington, UK); Mac-2 (1:400, Cedarlane, N.C., USA). For fluorescent double-staining of ASL and CD11c the mouse anti ASL (1:50 Santa Cruz Biotechnology, Inc. sc-166787, TX, USA) and rabbit anti CD11c (1:50, ab52632) were used. All antibodies were diluted in PBS containing 2% normal horse serum and 0.2% Triton. Sections were incubated overnight at RT followed by 48 hours at 4° C. Sections were washed three times in PBS and incubated with secondary biotinylated IgG at RT (room temperature) for 1.5 hour, washed three times in PBS and incubated with avidin-biotin Complex (Elite-ABC kit, Vector Lab, CA, USA) at RT for additional 90 minutes followed by DAB (Sigma) reaction. For the fluorescent staining the CY2 conjugated anti mouse and CY3 conjugated streptavidin (1:100 and 1:200 respectively, Jackson ImmunoResearch, West Grove, Pa.) were used.

C57BL/6J.OlaaHsd mice [2] = assay: DSS-induced colitis, treatment with arginine, citrulline, NaNO2, fisetin or citrulline plus fisetin; settings: day 12
intestine = assay: Tunnel staining of intestine (apoptosis); settings: colitis mice, citrulline vs control; FIGS. 3F-H
Procedure: Tunnel staining was performed by using ApopTag kit detection according to manufacturer's instructions (Millipore, CA, USA). Stained sections were examined and photographed by a fluorescence or bright field microscope (Eclipse Ni-U; Nikon, Tokyo, Japan) equipped with Plan Fluor objectives (10; 20×; 40×) connected to a monochrome camera (DS-Qi1, Nikon).

enterocytes = assay: FACS analysis of colon epithelial cells (enterocytes) after colitis induction
Procedure: Colon segment was flushed with cold PBS, longitudinally cut open and rinsed to remove residual luminal contents. Tissue was cut into 3- to 5-mm pieces and incubated in HBSS medium containing EDTA 0.5 M and Hepes 10 mM at 37° C. for 20 minutes, shaken at 180 rpm, to separate epithelial fraction. Supernatant was centrifuged at 4° C. at 500 g for 10 minutes. Recovered tissue was digested in HBSS medium with 2% fetal bovine serum (FBS), 0.05% collagenase II and 0.05% DNase I (Sigma) for 40 minutes. at 37° C., shaken at 180 rpm. LP cells were filtered through 65 μm mesh and centrifuged at 4° C. at 500 g for 10 minutes. The present inventors prepared single cell suspensions from mouse colon by enzymatic digestion and analyzed by polychromatic flow cytometry. Samples were stained with conjugated antibodies or matching isotype controls according to manufacturer's instructions. Data were acquired on an LSRII (BD Biosciences) or FACSCalibur instrument (Becton-Dickinson) with CellQuest software, with a MacsQuant instrument (Miltenyi, Bergisch Gladbach, Germany), and analyzed using BD FACSDiva 6 or FlowJo software (version 7.6.5, or version vX.0.7 Tree Star Inc) or MacsQuant. Colon cells were stained for 30 min at 4° C. in flow cytometry buffer (PBS, 10% FCS and 0.02% azide). For antigens that require intracellular staining (As1, iNOS and S-nitrosocystein), cell surface staining was followed by cell fixation and permeabilization with the Cytofix/Cytoperm kit (BD Biosciences) according to the manufacturer's instructions. For staining, the present inventors used a lineage cocktail of antibodies anti-CD45-APC, Anti-CD64-PE, Anti-CD11c-PB, Anti-326-APC cy7, Anti CD31-PE cy7 (all from BioLegend). After staining for cell surface antigens, intracellular NO was detected by incubation of cells for 15 min at 37° C. with 10 μM DAF-FM diacetate followed by extensive washing, according to the manufacturer's instructions (Molecular Probes). Staining without addition of the DAF-FM probe was considered to be the baseline for gating the positive population. As1 was detected using anti-As1-ALEXA FLUOR® 488 (BD Biosciences), iNOS using anti-iNOS followed by anti-rat 488 (Jackson ImmunoResearch), and nitrosylation using anti-S-nitrosocystein (from abcam) followed by anti-mouse 488 (Jackson ImmunoResearch).

[3] = then arginine 1%, citrulline 1% or NaNO2 100 mg in drinking water 6 days vs water control, FIG. 3A
[4] = arginine, citrulline or NaNO2 vs water control, FIG. 3C
[5] = arginine, citrulline or NaNO2 vs water control
[6] = arginine, citrulline or NaNO2 vs water control, FIG. 3B

Row | SMILES | weight loss (C57BL/6J.OlaaHsd mice [1]; [3]) | colon length (C57BL/6J.OlaaHsd mice [1]; [4]) | Histology score for colitis (C57BL/6J.OlaaHsd mice [1]; [5]) | clinical improvement in colitis severity (C57BL/6J.OlaaHsd mice [1]; FIG. 3A-D) | As1 expression in distal colon sections (intestine, enterocytes) (As1) | endoscopic colitis score (C57BL/6J.OlaaHsd mice [2]; [6]) | weight loss (C57BL/6J.OlaaHsd mice [1]; then fisetin 1 mg IP twice, citrulline 1% in drinking water or both vs DMSO control, FIG. 4B) | effectiveness in alleviating colitis severity compared among arginine, citrulline and NO donor (C57BL/6J.OlaaHsd mice [1]; FIG. 3A-D) | colon length (C57BL/6J.OlaaHsd mice [1]; fisetin, citrulline or both vs DMSO control, FIG. 4D) | histological score (C57BL/6J.OlaaHsd mice [1]; fisetin, citrulline or both vs DMSO control, FIG. 4E) | apoptosis in the intestine (intestine) | induction of NO synthesis in enterocytes, citrulline compared with arginine (enterocytes; FIGS. 3I-J) | NO levels in enterocytes (colon epithelial cells) (enterocytes; after colitis induction, treated vs control, FIGS. 3F-J, 4F-I) | endoscopic colitis score, citrulline in comparison to arginine (C57BL/6J.OlaaHsd mice [2]; FIG. 3B) | endoscopic colitis score (C57BL/6J.OlaaHsd mice [2]; fisetin, citrulline or both vs DMSO control, FIG. 4C)
1 | N=C(N)NCCC[C@H](N)C(=O)O [arginine] | significant weight loss reduction in the control group compared to the three treatments | significant reduction in colon length in the control group as compared to the treated colons | significantly lower | significant clinical improvement | upregulated | Significant improvement | – | – | – | – | – | – | – | – | –
2 | O=N[O-].[Na+] [NaNO2] | significant weight loss reduction in the control group compared to the three treatments | significant reduction in colon length in the control group as compared to the treated colons | significantly lower | significant clinical improvement | reduced expression | Significant improvement | – | – | – | – | – | – | – | – | –
3 | NC(=O)NCCCC(N)C(=O)O (stereo not drawn) [citrulline, 2-Amino-5-(carbamoylamino)pentanoic acid] | significant weight loss reduction in the control group compared to the three treatments | significant reduction in colon length in the control group as compared to the treated colons | significantly lower | significant clinical improvement | upregulated; also recorded: more pronounce expression | Significant improvement | significant weight loss is documented in the control group compared to the treated mice | the most effective | significant longer | significant reduction | decreased apoptosis; also recorded: increased apoptosis in the control intestine as compare to colon taken from mice treated with citrulline | more effective than arginine | increased generation of NO | more beneficial treatment | significant improvement

Source: patent US20190314312A1, “COMBINATION THERAPY TO INCREASE ENDOGENOUS NITRIC OXIDE (NO) SYNTHESIS” (Yeda Research and Development Co. Ltd., priority 2016, published 2019)
